How the values were obtained:
Type in all cases: in vivo, mouse
[1] = test system: C-26 colon adenocarcinoma cachexia model; assay: Initial AR-42/GTx-024 combination study (Study 1), C-26 model; settings: for effect on gastrocnemius and quadriceps mass: monotherapy (GTx-024 15 mg/kg; AR-42 10 mg/kg)
Method: (§1) These studies were performed as previously described (Tseng Y C, et al. J Natl Cancer Inst. 2015 107(12):djv274) with modifications. Tumors were established in the right flank by subcutaneous injection of C-26 cells (0.5×10^6 cells in 0.1 mL). […] TFM-4AS-1 (a potent experimental SARM), dihydrotestosterone (DHT) and vehicles were administered by subcutaneous injection.
Male CD2F1 mice were stratified by body weight and then randomly assigned into 6 groups of 6 animals each. Historically, 6 animals per group provided sufficient power to detect treatment-mediated differences in tumor-bearing treated animals compared to controls. Tumors were established in four of the groups, while the fifth and sixth groups served as tumor-free controls. Six days later, animals with palpable tumors were treated twice daily for 13 days. […] Body weight, tumor volume, and feed consumption were monitored every other day. Upon sacrifice on day 18, sera were collected and hind limb skeletal muscles, heart, spleen and epididymal adipose tissues were harvested, weighed, flash frozen, and stored for subsequent analyses.
Male CD2F1 mice (6-7 weeks of age; Harlan Laboratories, Indianapolis, Ind.) were group-housed under conditions of constant photoperiod (12-hour light/12-hour dark), temperature and humidity with ad libitum access to water and standard pelleted chow. […] In experiments in which food consumption was determined, the food in each cage was weighed daily and the daily decrease in food weight was divided by the number of mice in the cage. Tumor volumes were calculated from caliper measurements using a standard formula (length×width^2×π/6). Mice were euthanized by CO2 inhalation.

androgen receptor (AR) = assay: Western blot of androgen receptor in gastrocnemius muscle, Study 1; settings: irrespective of tumor burden
Method: FIGS. 3A-B show gene expression of multiple cachexia-associated markers in gastrocnemius muscles of individual animals from Study 1 (n=5-6 per group). Expression was determined by qRT-PCR (Geometric Mean±Geometric STD). FIG. 3A contains bar graphs showing genes associated with muscle atrophy. FIG. 3B is a bar graph showing androgen receptor (AR) mRNA expression. […] Statistics all panels: *p<0.05, ***p<0.001, ****p<0.0001 versus tumor-bearing vehicle-treated controls, Dunnett's multiple comparison test. CEBPO, n=4, insufficient sample to analyze all tumor-bearing GTx-024-treated animals.
(§2) Western blots from all studies were performed on gastrocnemius muscle from representative animals lysed by Nonidet P-40 isotonic lysis buffer [50 mM Tris-HCl, pH 7.5, 120 mM NaCl, 1% (v/v) Nonidet P-40, 1 mM EDTA, 50 mM NaF, 40 mM glycerophosphate, and […] each of protease inhibitors (aprotinin, pepstatin, and leupeptin)]. Equivalent amounts of protein from each sample, as determined by Bradford assay (Bio-Rad), was resolved by SDS-PAGE and then transferred (semi-dry) onto immobilon-nitrocellulose membranes (Millipore, Billerica, Mass.). Membranes were washed twice with TBST [Tris-buffered saline (TBS) containing 0.1% Tween 20], blocked with 5% nonfat milk in TBST for 1 hour, and then washed an additional 3 times. […]

phospho-STAT3 (pSTAT3) [2] = assay: Phospho-STAT3/STAT3 ELISA in C-26 tumors, Study 2; settings: AR-42 10 mg/kg
Source text: FIG. 4A is a table showing multiplex analysis of diverse serum cytokines in terminal samples from Study 2. Presented cytokines are limited to those showing significant differences from tumor-bearing vehicle-treated controls. G-CSF: granulocyte colony-stimulating factor, GM-CSF: granulocyte macrophage colony-stimulating factor, IL-6: interleukin-6, IL-17: interleukin-17, IP-10: interferon gamma-induced protein 10, KC: chemokine (C-X-C motif) ligand 1, LIF: leukemia inhibitory factor, M-CSF: macrophage colony-stimulating factor. FIG. 4B is a bar graph showin ELISA analysis of serum IL-6 levels in terminal samples from Study 2. ND, not detected. FIG. 4C is a plot showing individual animal serum IL-6 values as determined in A plotted against tumor-corrected terminal bodyweights from Study 2 (Pearson's Correlation). […] FIG. 4E is a plot showing spleen weights normalized to tumor-corrected terminal body weights of mice from Study 2. FIG. 4F is a bar graph showing ELISA analysis of STAT3 within C-26 tumors from Study 2. […]
Phospho-STAT3/STAT3 Analysis: Expression of phospho-STAT3 and total STAT3 in C-26 tumor tissues was measured using commercial sandwich ELISA kits according to the manufacturer's instructions (PathScan® Phospho-Stat3, #7300, and Total Stat3, #7305, Cell Signaling Technology, Danvers, Mass.).

[3] = test system: C-26 colon adenocarcinoma cachexia model; assay: Combined androgen and AR-42 study (Study 3), C-26 model
Method: as §1
Six days after cell injection, animals with palpable tumors were treated once daily for 13 days with vehicles for AR-42 and TFM-4AS-1/DHT (n=9), AR-42 (10 mg/kg; TFM-4AS-1/DHT vehicle; n=10), TFM-4AS-1 (10 mg/kg; AR-42 vehicle; n=9), DHT (3 mg/kg; AR-42 vehicle; n=10), the combination of AR-42 and TFM-4AS-1 (10 mg/kg each; n=9), or the combination of AR-42 (10 mg/kg) and DHT (3 mg/kg)(n=10). Grip strength was measured and tissues collected as in the previous studies.
Forelimb grip strength was measured using Bio-GS3 Grip Strength Test Meter (Forceleader DBA Bioseb, Pinellas Park, Fla.). Each mouse was held by the base of its tail and lowered over the apparatus until its forepaws grasped the metal pull bar. The mouse was then gently pulled horizontally in a straight line away from the grip strength meter until the mouse released the bar. The force applied to the bar at the moment of release was recorded as the peak force. Five measurements were taken from each mouse, the average of which was designated as the mouse's grip strength.

phospho-STAT3 (pSTAT3) [4] = assay: Western blot of phospho-STAT3 in gastrocnemius muscle, Study 1; settings: C-26 tumor-bearing animals
Source text: FIG. 4A is a table showing multiplex analysis of diverse serum cytokines in terminal samples from Study 2. Presented cytokines are limited to those showing significant differences from tumor-bearing vehicle-treated controls. G-CSF: granulocyte colony-stimulating factor, GM-CSF: granulocyte macrophage colony-stimulating factor, IL-6: interleukin-6, IL-17: interleukin-17, IP-10: interferon gamma-induced protein 10, KC: chemokine (C-X-C motif) ligand 1, LIF: leukemia inhibitory factor, M-CSF: macrophage colony-stimulating factor. FIG. 4B is a bar graph showin ELISA analysis of serum IL-6 levels in terminal samples from Study 2. ND, not detected. FIG. 4C is a plot showing individual animal serum IL-6 values as determined in A plotted against tumor-corrected terminal bodyweights from Study 2 (Pearson's Correlation). […]
as §2, with “Mass.).” for “Mass.). Membranes were washed twice with TBST [Tris-buffered saline (TBS) containing 0.1% Tween 20], blocked with 5% nonfat milk in TBST for 1 hour, and then washed an additional 3 times.”

CC(C)[C@H](C(=O)Nc1ccc(C(=O)NO)cc1)c1ccccc1 [AR-42, (S)—N-hydroxy-4-(3-methyl-2-phenylbutanamido)benzamide]
terminal body weight, corrected for tumor weight ([1]; Study 1, Day 18, C-26 tumor-bearing, AR-42 10 mg/kg, GTx-024 15 mg/kg, oral, 13 days): 93.6±7.7 % of baseline
effect on gastrocnemius and quadriceps mass ([1]; Study 1, C-26 tumor-bearing): not translated into significant improvements in gastrocnemius and quadriceps mass
AR protein expression in gastrocnemius (androgen receptor (AR)): did not have a marked impact on AR expression
pSTAT3 signaling within the C-26 tumors (phospho-STAT3 (pSTAT3) [2]): did not significantly suppress pSTAT3 signaling within the C-26 tumors
terminal body weight ([3]; Study 3, Day 17, of baseline, C-26 tumor-bearing, AR-42 10 mg/kg oral, TFM-4AS-1 10 mg/kg s.c., DHT 3 mg/kg s.c.): 93.5±4.8
effect on mass of gastrocnemius or quadriceps ([3]; Study 3, monotherapy (TFM-4AS-1 10 mg/kg; AR-42 10 mg/kg)): did not significantly impact skeletal muscle masses
pSTAT3 abundance in gastrocnemius muscle (phospho-STAT3 (pSTAT3) [4]): reduced pSTAT3 but not equally in all animals

C[C@](O)(COc1ccc(C#N)cc1)C(=O)Nc1ccc(C#N)c(C(F)(F)F)c1 [GTx-024, (2S)-3-(4-cyanophenoxy)-N-(4-cyano-3-(trifluoromethyl)phenyl)-2-hydroxy-2-methylpropanamide]
effect on body weight ([1]; Study 1, C-26 tumor-bearing, GTx-024 15 mg/kg monotherapy): did not spare body weight
effect on gastrocnemius and quadriceps mass ([1]; Study 1, C-26 tumor-bearing): did not spare
per animal food consumption ([1]; Study 1, between day 14 and 16, GTx-024 in tumor-free animals, combination in tumor-bearing animals, relative to other groups): small increases in per animal food consumption
body weight in tumor-free controls ([1]; Study 1, tumor-free mice, GTx-024 15 mg/kg): did not cause body weight loss
AR protein expression in gastrocnemius (androgen receptor (AR)): increased
pSTAT3 abundance in gastrocnemius muscle (phospho-STAT3 (pSTAT3) [4]): no apparent effect on pSTAT3
